We go through nine compounds from patent US20260109695A1, “PEROXIREDOXIN 3 INHIBITORS AND METHODS OF USE FOR TREATING CANCER” (WAKE FOREST UNIVERSITY HEALTH SCIENCES, priority 2022, published 2026).

The structures appear in SMILES notation. pEC50: −log10 of the molar value. Values after ≈ are worked out from the molar mass of the structure shown. Read-outs that look alike come from different tables or passages of the source.

In data set [1] the test system is human SK-OV-3 ovarian cancer cells. The data set can be described thus: Cellular Activity Assay (cytotoxicity, crystal violet). It is filed as cell-based. The conditions noted are these: SK-OV-3 cells, 48 hr treatment. From the text: (§1) To test the activity of compounds, two complimentary assays were used as described below. The Biochemical PRX3 Inhibition Assay tests the ability of each compound to crosslink PRX3 in a simple, in vitro system. In the Cellular Activity Assay, we are testing the ability of compounds to kill SK-OV-3 ovarian cancer cells.
The Cellular Activity Assay measures the EC50 of each compound in human SK-OV-3 ovarian cancer cells TS to be taken into the cell, transported to the mitochondria, and crosslink PRX3.
The cytotoxicity of compounds was measured as described in Nelson et al. (2021) Antioxidants (Basel) 10, 150; Cunniff et al. (2015) PloS one 10, e0127310; and Newick et al. (2012) PloS one 7, e39404. SK-OV-3 is an adherent, epithelial, adenocarcenoma cell line obtained from ATCC (ref #: HTB-77). SK-OV-3 cells are resistant to the commonly used chemotherapeutics, cis-platinum and doxorubicin. For this PRX3 crosslinking assay, SK-OV-3 cells were plated in a 96-well plate. After 24 h recovery, the cells were treated for 48 hr with multiple concentrations of each compound ranging from 0.1-100 μM.
Cells were washed with PBS to remove dead cells and the remaining live cells were fixed with 3.0% formaldehyde and stained with 0.1% crystal violet. The amount of crystal violet was determined by reading the absorbance at 540 nm (crystal violet dye dissolved in 100% methanol) using a plate reader. The signal for crystal violet dye is proportional to the biomass of remaining live cells. GraphPad Prism9 software was used to calculate the effective inhibitory concentration (EC50) of test compounds. Results for each compound, are normalized to the amount of cells in control wells treated with the equivalent concentration of DMSO (negative control). TS or Compound B were included in each set of assays as a positive control.

The target of another data set is T1, purified human PRX3 (Homo sapiens, UniProt P30048).
T1 construct: made in house
T1 sequence (P30048 62-256): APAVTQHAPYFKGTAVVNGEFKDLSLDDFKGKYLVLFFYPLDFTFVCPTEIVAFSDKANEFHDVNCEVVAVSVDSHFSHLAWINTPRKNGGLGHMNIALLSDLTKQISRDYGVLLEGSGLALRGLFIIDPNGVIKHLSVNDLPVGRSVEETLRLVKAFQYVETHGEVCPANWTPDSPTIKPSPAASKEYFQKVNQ
The data set can be described thus: Biochemical PRX3 Inhibition Assay (crosslink by SDS-PAGE, mono-adduct by MALDI-TOF MS). The conditions noted are these: 1-2 hr at 37° C. On the procedure:
as §1
This assay tests the ability of each compound to form a covalent adduct with PRX3. The assay is performed as described in Nelson et al. (2021) Antioxidants (Basel) 10, 150; and Cunniff et al. (2015) PloS one 10, e0127310, and follows the appearance of non-reducible PRX3 crosslinks by SDS PAGE gel electrophoresis and follows the appearance of single PRX3 adducts by mass spectrometry. For this assay, purified human PRX3, hydrogen peroxide (the PRX3 substrate) and all the components required to enable PRX3 to catalytically cycle (thioredoxin-thioredoxin reductase-NAPDH system) are included (details below).
The biochemical PRX3 Inhibition assay contains 100 µM PRX3, 50 µM human TRX2, […] mouse thioredoxin reductase, and a NADPH regenerating system composed of 3.2 mM glucose 6-phosphate, 3.2 U/ml glucose 6-phosphate dehydrogenase and 0.4 mM NADPH. Samples are incubated for 1-2 hr at 37° C. with either 0.2 mM TS (positive control), compounds or an equivalent volume of DMSO (negative control). During this incubation, hydrogen peroxide is added to induce turnover of PRX3. Reactions are stopped by the addition of a buffer containing 100 mM dithiolthreitol (to break disulfide bonds) and SDS (detergent to denature proteins). NADPH, Glucose 6-Phosphate, and glucose 6-phosphate dehydrogenase were purchased from Sigma Aldrich. PRX3, thioredoxin, and thioredoxin reductase were all purified to >98% purity in the Lowther laboratory according to protocols referenced in Nelson et al. (2021) Antioxidants (Basel) 10, 150; and Cunniff et al. (2015) PloS one 10, e0127310.
To measure the amount of PRX3 crosslink, proteins in the reaction were separated by SDS-polyacrlyamide gel electrophoresis and stained for total protein using GelCode Blue (Life Technologies). The amount of unmodified PRX3 and TS-PRX3 crosslink was measured by densiometric analysis of the signal for the PRX3 band running at the MW of a PRX3 crosslink (−46 kDa) compared to the PRX3 signal at the MW of the un-modified PRX3 (˜23 kD).
To measure covalent adduct formation on a single PRX3 monomer, each reaction was exchanged into a mass spectrometry compatible buffer containing 40 mM ammonium citrate, pH 8.3 made in HPLC water. Sample was mixed 1:1 with a matrix solution containing 30 mg/mL sinapinic acid in 70% (vol/vol) acetonitrile, 0.2% formic acid and spotted to onto the sample plate. PRX3 mass was measured by MALDI-TOF MS analysis on a Bruker Daltonics MALDI-TOF MS spectrometer. Spectra were analyzed in FLEXAnalysis Software. The intensity of the reduced PRX3 peak (SH) and intensity of the analog adduct peak was determined and corrected for background signal at the adduct peak in the DMSO control. The fraction of single analog adduct in the monomer peak was determined by dividing the intensity of the adduct peak by the summed intensity of the SH and adduct peaks.

Another data set can be described thus: Solubility Assay. It is filed as physicochemical. The conditions noted are these: 20 mM HEPES, pH 7.5, 18-24 hours at ambient temperature. The protocol: A 20 mM stock solution was made for each compound in DMSO. To measure solubility, 0.03-0.05 mL of the stock was added to 0.27 mL 20 mM HEPES, 100 mM NaCl, pH 7.5. The solution was mixed and rotated 18-24 hours at ambient temperature. The next day, solutions were centrifuged for 10 min at 20,000×g at 24° C. to remove insoluble, solid material. Next, 100 μL of the supernatant containing the soluble compound was added to 900 μL DMSO and High Performance Liquid Chromatography was performed as described in Table 1 and either HPLC gradient 1 (Table 2) for HPLC gradient 2 (Table 3). For each analog, a 200 μM standard and a 20 μM standard were prepared and run in parallel (standards were dissolved completely in 100% DMSO). The amount of compound in the experimental sample was calculated by comparing the area under the curve for compound peak to the area for the closest standard and correcting for dilution.

The subject of data set [2] is Enterococcus hirae (ATCC #10541). The data set can be described thus: Antimicrobial Activity Assay. It is filed as cell-based. The conditions noted are these: for MIC: Enterococcus hirae. On the procedure: The overnight growth was then diluted into growth media to make a single solution of E. hirae with a final optical density at 600 nm=0.02 AU. A 20 mM stock solution of Thiostrepton in DMSO was made and used to make multiple dilutions of TS in DMSO. Each TS dilution (0.1 mL) was then added to a test tube containing 10 mL of the diluted E. hirae and grown at 37° C. overnight while shaking at 180 rpm. The next morning, each tube was visually inspected to determine if the cells grew. Final concentrations tested were 0.120, 0.090, 0.075, 0.060, 0.045, 0.030, and 0.015 μM TS. […] Three replicates were made on three separate days (n=9). […] For TS analogs, the dilute E. hirae was treated with 20 µM final concentration of each analog (three replicates each). […] DMSO was used as a positive control (complete cell growth) and 20 µM thiostrepton was used as a negative control.

The test system of another data set is 578 cancer cells lines. The conditions noted are these: of 578 cancer cells lines tested; cited from earlier work.
[3] abbreviates: 100 mM NaCl buffer, aqueous with cosolvent or surfactant or cyclodextrin, kinetic from dmso stock, read-out: Solubility.
Setting [4] is: ATCC10541, minimal inhibitory concentration, read-out: Antimicrobial Activity.
The mark [5] stands for this setting: E. hirae, overnight at 37° C., n=9.

Compound `C=C(NC(=O)c1csc(N2CCC(NC(=O)OC(C)(C)C)CC2)n1)C(=O)NC(=C)C(=O)OCC1CCOCC1` [Compound 6, (Tetrahydro-2H-pyran-4-yl)methyl 2-(2-(2-(4-((tert-butoxycarbonyl)amino)piperidin-1-yl)thiazole-4-carboxamido)acrylamido)acrylate] gave a pEC50 in data set [1] of 5.00 to 6.00. The “PRX3 Inhibition (Crosslink + Mono-adduct)” value (from here on “PRX3 Inhibition”) at purified human PRX3 is recorded as “+++ (>90%)”. Also, the solubility in the data set “Solubility Assay” (setting [3]) is less than 100 µM. For the same compound, in data set [2] (setting [4]), the MIC was more than 20 µM.
On the same counts, the results for `C=C(NC(=O)c1csc(N2CCC(NC(=O)OC(C)(C)C)CC2)n1)C(=O)NC(=C)C(=O)OC1CCOCC1` [Compound 5, Tetrahydro-2H-pyran-4-yl 2-(2-(2-(4-((tert-butoxycarbonyl)amino)piperidin-1-yl)thiazole-4-carboxamido)acrylamido)acrylate] are 5.00 to 6.00, “+++ (>90%)”, less than 100 µM and more than 20 µM.
The matching figures for `C=C(NC(=O)c1csc(N2CCC(NC(=O)OC(C)(C)C)CC2)n1)C(=O)NC(=C)C(=O)OCCOC` [Compound 3, 2-Methoxyethyl 2-(2-(2-(4-((tert-butoxycarbonyl)amino)piperidin-1-yl)thiazole-4-carboxamido)acrylamido)acrylate]: 4.60 to 5.00, “+++ (>90%)”, 100 to 1000 µM (≈ 52.4 to 524 µg/mL) and more than 20 µM.
On the same counts, the results for `C=C(NC(=O)c1csc(N2CCC(NC(=O)OC(C)(C)C)CC2)n1)C(=O)NC(=C)C(=O)N(C)CCOC` [Compound 7, Tert-butyl (1-(4-((3-((3-((2-methoxyethyl)(methyl)amino)-3-oxoprop-1-en-2-yl)amino)-3-oxoprop-1-en-2-yl)carbamoyl)thiazol-2-yl)piperidin-4-yl)carbamate] are 4.00 to 4.60, “+++ (>90%)”, 100 to 1000 µM (≈ 53.7 to 537 µg/mL) and more than 20 µM.
Regarding `C=C(NC(=O)c1csc(N2CCC(NC(=O)OC(C)(C)C)CC2)n1)C(=O)NC(=C)c1nnc(C2CCOCC2)o1` [Compound 8, Tert-butyl (1-(4-((3-oxo-3-((1-(5-(tetrahydro-2H-pyran-4-yl)-1,3,4-oxadiazol-2-yl)vinyl)amino)prop-1-en-2-yl)carbamoyl)thiazol-2-yl)piperidin-4-yl)carbamate], the pEC50 in data set [1] was 4.60 to 5.00. At purified human PRX3, the “PRX3 Inhibition” value is “+++ (>90%)”. Further, the solubility in “Solubility Assay” (setting [3]) is less than 100 µM. The MIC in data set [2] (setting [4]) is more than 20 µM.
Compound `C=C(NC(=O)c1csc(N2CCC(NC(=O)OC(C)(C)C)CC2)n1)C(=O)NC(=C)C(=O)OCc1ccccc1` [Compound 2, Benzyl 2-(2-(2-(4-((tert-butoxycarbonyl)amino)piperidin-1-yl)thiazole-4-carboxamido)acrylamido)acrylate] showed a pEC50 in data set [1] of 5.00 to 6.00. Besides, the “PRX3 Inhibition” value on purified human PRX3 is “++ (50-90%)”. The solubility in the data set “Solubility Assay” (setting [3]) was less than 100 µM. In data set [2] (setting [4]), the MIC was more than 20 µM.
As to `C=C(NC(=O)C(=C)NC(=O)c1csc(N2CCC(NC(=O)OC(C)(C)C)CC2)n1)C(=O)NCCOC` [Compound 4, Tert-butyl (1-(4-((3-((3-((2-methoxyethyl)amino)-3-oxoprop-1-en-2-yl)amino)-3-oxoprop-1-en-2-yl)carbamoyl)thiazol-2-yl)piperidin-4-yl)carbamate], in data set [1], the pEC50 is 4.60 to 5.00. Besides, at purified human PRX3, the “PRX3 Inhibition” value was “+++ (>90%)”. The solubility in the data set “Solubility Assay” (setting [3]) was in the range of 100 to 1000 µM (≈ 52.3 to 523 µg/mL). Also, the MIC in data set [2] (setting [4]) was more than 20 µM.
On the same counts, the results for `C=C(NC(=O)c1csc(N2CCC(NC(=O)OC(C)(C)C)CC2)n1)C(=O)NC(=C)C(=O)N1CCCCC1` [Compound 1, Tert-butyl (1-(4-((3-oxo-3-((3-oxo-3-(piperidin-1-yl)prop-1-en-2-yl)amino)prop-1-en-2-yl)carbamoyl)thiazol-2-yl)piperidin-4-yl)carbamate] are 4.60 to 5.00, “+++ (>90%)”, less than 100 µM and more than 20 µM.
`C=C(NC(=O)C(=C)NC(=O)c1csc(C2=N[C@@H]3c4csc(n4)[C@H]4NC(=O)c5csc(n5)[C@H]([C@](C)(O)[C@@H](C)O)NC(=O)[C@H]5CSC(=N5)/C(=C/C)NC(=O)[C@H]([C@@H](C)O)NC(=O)c5csc(n5)[C@]3(CC2)NC(=O)[C@H](C)NC(=O)C(=C)NC(=O)[C@H](C)NC(=O)[C@H]([C@@H](C)CC)N[C@@H]2C=Cc3c([C@H](C)O)cc(nc3[C@H]2O)C(=O)O[C@@H]4C)n1)C(N)=O` [Thiostrepton, reference compound] had a pEC50 in data set [1] of 5.00 to 6.00. Moreover, the “PRX3 Inhibition” value at purified human PRX3 was “++ (50-90%)”. Besides, the solubility entry in the data set “Solubility Assay” (100 mM NaCl) is “+ (<0.1 mM)”. In data set [2] (setting [5]), the “TS concentrations at which complete growth was observed” value is not above 0.030 µM and the “TS concentrations at which no growth was observed” value was not below 0.045 µM. Besides, in data set [2] (ATCC10541, read-out: Antimicrobial Activity), the MIC lay in the range of 0.02 to 0.2 µM (≈ 0.0333 to 0.333 µg/mL). In the data set on 578 cancer cells lines, the “Number of tumor cells lines with meaningful efficacy” value is given as 403.

What is called pEC50 is −log10 of the EC50, conventionally taken in molar units. By solubility is commonly meant the dissolved amount per volume that the medium holds.
